{
  "source": "paper PMC3880103",
  "about": "“Cathepsin B/X is secreted by Echinometra lucunter sea urchin spines, a structure rich in granular cells and toxins” (The Journal of Venomous Animals and Toxins Including …, 2013)",
  "system": "T1, cathepsin B/X (cysteine peptidase of the spine aqueous extract)",
  "T1 construct": "gene CTSB; anti-cathepsin B bands between 60 and 80 kDa",
  "experiment": "fluorogenic substrate hydrolysis (MCA release), non-linear regression",
  "assay_type": "biochemical, Echinometra lucunter",
  "details": "crude spine extract; 100 mM ammonium acetate, pH 7.4, 30°C; preincubated with 2 mM DTT",
  "text": "fluorogenic substrate hydrolysis (MCA release), non-linear regression on cathepsin B/X (cysteine peptidase of the spine aqueous extract)",
  "data": [
    {"compound": "Cc1cc(=O)oc2cc(NC(=O)[C@H](CCCNC(=N)N)NC(=O)OCc3ccccc3)ccc12", "note": "[Z-R-MCA, carbobenzoxy-L-arginine-7-amino-4-methylcoumarin]", "values": [
      {"measurement": "Km", "value": "147 ± 40", "unit": "µM"}
    ]}
  ]
}
